# Results as given in PMC3923439, “Anti-inflammatory properties of a novel peptide interleukin 1 receptor antagonist” (Journal of Neuroinflammation, 2014).
# Positions of bridges follow the written chain, without caps; N, C: chain ends. Chains are numbered I, II in the order given. No end group written: not given here.
# Assays:
# [1] = test system: neonatal rat pancreatic islets; assay: IL-1β-induced nitric oxide production (nitrite, Griess reagent); format: cell-based; conditions: nitrites in supernatants of the apoptosis experiments, four independent experiments
# Protocol: For cell death detection, rat islets were incubated with 150 pg/ml IL-1β (BD Pharmingen, San Diego, CA, USA) alone or in combination with various concentrations of Ana and Ilantide for 24 hours at 37°C in humidified atmospheric air. Rat islet cell death was assessed by cell death detection ELISA (Roche, Lund, Sweden) as previously described. As a surrogate measure of nitric oxide production, Griess reagent (1:1 aqueous mixture of 0.1% naphthylethylenediamine hydrochloride and 1% sulfanilamide + 5% H3PO4) was mixed in a 1:1 ratio with 100 μl of supernatant samples to determine the nitrite content in supernatants from the cell death assays described above.
# Figure 8 Effect of Ilantide on interleukin 1β-induced nitric oxide production. Anakinra (A) but none of the peptides, Ilantide-m (B) or Ilantide-t (C), inhibited interleukin 1β (IL-1β)-induced nitric oxide production. The results of four independent experiments are shown. *P < 0.05 and **P < 0.01 compared with cultures treated with IL-1 alone (one-way analysis of variance followed by Dunnett’s post hoc test).
# [2] = test system: LPS-induced neuroinflammation; assay: Lipopolysaccharide-induced impairment of social behavior; format: in vivo; conditions: rat
# Protocol: The peripheral administration of LPS, the active fragment of bacterial endotoxin, results in an increase in the plasma levels of all proinflammatory cytokines and behavioral depression. LPS-induced behavioral depression was assessed by measuring the reduction of the duration of social interaction during 4-minute sessions. Six- to seven-week-old rats were handled for five days, habituated to the test cages and the experiment room and trained for social interaction with three-week-old juvenile rats introduced into the test cage for four minutes two days before the actual experiment. On the day of the experiment, the rats were intraperitoneally injected (i.p.) with saline or LPS (Escherichia coli 0111:B4; Sigma-Aldrich) dissolved in saline (250 μg/kg). Immediately after the i.p. injection, Ilantide-t (Ila; 10 mg/kg, equivalent to 2.1 μmol/kg), Ana ([…], equivalent to 5.8 μmol/kg) or saline was injected subcutaneously. The volume of all of the injections was 1.0 ml/kg. Six experimental groups were used: vehicle i.p./vehicle s.c. (veh/veh; n = 10), vehicle i.p./Ilantide-t s.c. (veh/Ila; n = 8), vehicle i.p./Ana s.c. (veh/Ana; n = 9), LPS i.p./vehicle s.c. (LPS/veh; n = 10), LPS i.p./Ilantide-t s.c. (LPS/Ila; n = 11) and LPS i.p./Ana s.c. (LPS/Ana; n = 11). The injections and weighing of the rats were performed immediately after the first test session (0 h), and the animals were tested and weighed again 2, 4, 6, 8, and 24 hours later. Different juvenile animals were presented on each occasion. Social interaction consisted of anogenital sniffing, licking and chewing the fur of the juveniles by the experimental animals and was monitored with a video camera. […] The duration of social interaction at each time point is expressed as the percentage of baseline values and was averaged for each experimental group. Social interaction was scored by an observer who was blinded to the treatment of the animals. For evaluation of levels of pro- and anti-inflammatory cytokines in blood, rats were injected with LPS and then immediately with either vehicle (n = 8) or Ilantide-t (n = 8) as described above. In addition, a control group of animals (n = 4) was treated with Ilantide-t alone (control). Blood samples were collected at 0, 2 and 6 hours after injections as described for the pharmacokinetics study and stored at -20°C until use. The levels of IL-6, IFN-γ and IL-10 were determined using corresponding rat ELISA kits according to the manufacturer’s protocols (all from BD Biosciences, San Diego, CA, USA).
# [3] = Pharmacokinetics: plasma and CSF concentration by competitive ELISA; format: in vivo; conditions: rat, single s.c. 10 mg/kg, calculated
# Protocol: Biotinylated Ilantide-t (Schafer-N) was administered to adult male Wistar rats subcutaneously (s.c.) at a dose of 10 mg/kg. Twenty minutes, sixty minutes, one hundred forty minutes, five hours and thirty hours after peptide administration, blood samples (approximately 300 μl) were collected from the orbital plexus under fentanyl/droperidol/midazolam anesthesia (0.002%/0.14%/0.014% wt/vol) (Department of Experimental Medicine, University of Copenhagen, Denmark) in ethylenediaminetetraacetic acid–coated tubes (BD, Plymouth, UK), and 50 to 110 U/ml aprotinin (Calbiochem, San Diego, CA, USA) was added immediately to the collected blood. The samples were subsequently centrifuged at 1,500 × g for 15 minutes. Cerebrospinal fluid (CSF) was collected from the cisterna magna 30 minutes after peptide administration as described previously. Plasma and CSF samples were stored at -80°C.
# The concentrations of Ilantide-t in plasma and CSF samples were measured by performing a competitive ELISA on amino 96-well plates (Nunc). […] Color development was terminated by the addition of 2 M H2SO4 (100 μl/well), and absorbance was read at 450 nm on a Wallac Victor 1420 multilabel counter (PerkinElmer, Hvidovre, Denmark). Peptide concentrations in the samples were determined using a standard curve. […]
# [4] = test system: collagen-induced arthritis; assay: Collagen-induced arthritis in rats; format: in vivo; conditions: rat, 10 mg/kg s.c. daily dpi 8 to 15, dpi 10 to 16, P < 0.05
# Protocol: CIA was induced by bovine collagen type II (CII; Sigma-Aldrich) solubilized in 0.05 M acetic acid (2 mg/ml), then emulsified 1:1 with complete Freund’s adjuvant (CFA) (Sigma-Aldrich) that contained 1.0 mg/ml heat-inactivated Mycobacterium tuberculosis. While the animals were under inhalation anesthesia (3% isoflurane; Baxter, Allerød, Denmark), 250 μl of the emulsion that contained 250 μg of CII and 125 μg of M. tuberculosis were injected intradermally at the tail base (day postimmunization 0 (dpi 0)). […] An observer who was blinded to the treatment groups evaluated the severity of arthritis by employing the following grading system: 0 (no redness or swelling of the foot), 1 (slight redness in the foot or redness and swelling in single interphalangeal joints), 2 (moderate swelling and redness in the ankle and metatarsal part of the foot), 3 (marked swelling and redness of the entire foot, with restricted use of the foot during locomotion) and 4 (marked swelling and redness of the entire foot, with no use of the foot during locomotion). […] The differences in the area under the clinical score curve during the period of observation between the control and peptide-treated groups were calculated, with baseline defined as the start of treatment (that is, 0).
substance,measurement,setting,value
"I: SGRKSSKMQAKK-NH2 / II: SGRKSSKMQAK / III: SGRKSSKMQA / IV: SGRKSSKMQA (amide I:11-IV:C, I:12-II:C, II:11-III:C; C-terminus assumed) [Ilantide-t]",Inhibition of IL-1β-induced nitric oxide production,[1],none
same,IL-10 plasma levels,"[2]; 2 hours after LPS administration, Ilantide-t 10 mg/kg s.c., ELISA, P < 0.01",increase in IL-10 plasma levels
same,Plasma levels of proinflammatory cytokines (IL-6 and IFN-γ),"[2]; 6 hours following LPS injection, Ilantide-t 10 mg/kg s.c., ELISA, tendency toward reduction",not statistically significant
same,Effect on LPS-induced body weight decrease,"[2]; 24 hours after LPS 250 μg/kg i.p., Ilantide-t 10 mg/kg, Ana 100 mg/kg s.c., P < 0.05",attenuated the anorexigenic effect of LPS
same,Effect on LPS-induced depression of social activity (sickness behavior),"[2]; LPS 250 μg/kg i.p., Ilantide-t 10 mg/kg s.c., Ana 100 mg/kg s.c., 2 to 24 hours",attenuated social depression
same,Plasma half-life,[3],approximately 2 hours
same,"Severity of CIA (clinical score, area under the curve) versus vehicle",[4],significantly attenuated
